Columns and labels:
Test in all cases: competitive isoTOP-ABPP
Format in all cases: binding
[1] = target: T1, DYNC1H1 Cytoplasmic dynein 1 heavy chain 1 (Homo sapiens, UniProt Q14204); settings: for isoTOP-ABPP ratio (R) at liganded lysine Q14204_K1649: 50 uM, in vitro, sol, 231
T1 construct: isoTOP-ABPP experiments performed in cell lysates (in vitro); endogenous in cells; host or cells: soluble proteome of human cancer cell lines (MDA-MB-231, Ramos, Jurkat)
Summary of the method: (§1)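 Readout: isotopic light/heavy MS1 peak-area ratio (R, DMSO heavy over compound light), median across peptides sharing a modified lysine. Lysate received fragment (activated esters 50 μM, guanidinylating agents 100 μM final) or DMSO, then 0.1 mM STP-alkyne probe for 1 h at ambient temperature.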

[2] = target: T2, GLUD1 Glutamate dehydrogenase 1, mitochondrial (Homo sapiens, UniProt P00367); settings: for isoTOP-ABPP ratio (R) at liganded lysine P00367_K480: 50 uM, in vitro, sol, 231; for isoTOP-ABPP ratio, lysine P00367_K480: possible other lysine P00367_K477
T2 construct: isoTOP-ABPP experiments performed in cell lysates (in vitro); endogenous in cells; host or cells: MDA-MB-231 soluble lysate
T2 sequence (P00367 54-558): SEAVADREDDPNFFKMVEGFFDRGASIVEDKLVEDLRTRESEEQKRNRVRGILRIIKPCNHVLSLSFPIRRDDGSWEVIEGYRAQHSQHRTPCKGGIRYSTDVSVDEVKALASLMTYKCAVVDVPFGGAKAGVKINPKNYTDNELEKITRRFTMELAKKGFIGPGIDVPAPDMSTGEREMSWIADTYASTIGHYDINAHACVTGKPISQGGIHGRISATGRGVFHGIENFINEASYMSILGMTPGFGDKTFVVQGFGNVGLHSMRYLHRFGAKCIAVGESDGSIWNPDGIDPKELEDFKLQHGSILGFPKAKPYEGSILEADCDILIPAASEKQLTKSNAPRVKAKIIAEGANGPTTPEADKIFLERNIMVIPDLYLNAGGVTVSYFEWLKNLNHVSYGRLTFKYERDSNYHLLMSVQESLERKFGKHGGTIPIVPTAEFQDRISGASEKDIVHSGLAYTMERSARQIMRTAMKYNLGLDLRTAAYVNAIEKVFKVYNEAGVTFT
Summary of the method: as §1

[3] = target: T3, PNPO Pyridoxine-5-phosphate oxidase (Homo sapiens, UniProt Q9NVS9); settings: for isoTOP-ABPP ratio (R) at liganded lysine Q9NVS9_K100: 50 uM, in vitro, sol, 231
T3 construct: endogenous in cells; host or cells: MDA-MB-231 (soluble fraction of lysate)
T3 sequence (Q9NVS9 1-261): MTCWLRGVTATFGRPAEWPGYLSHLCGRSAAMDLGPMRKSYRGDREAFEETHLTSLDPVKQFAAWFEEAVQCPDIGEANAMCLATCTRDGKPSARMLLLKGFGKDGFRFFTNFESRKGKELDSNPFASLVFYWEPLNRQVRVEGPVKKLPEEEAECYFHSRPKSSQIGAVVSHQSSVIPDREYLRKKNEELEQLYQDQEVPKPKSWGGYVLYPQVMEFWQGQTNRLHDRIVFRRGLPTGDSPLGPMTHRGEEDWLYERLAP
Summary of the method: as §1

[4] = target: T4, POLR2L DNA-directed RNA polymerases I, II, and III subunit (Homo sapiens, UniProt P62875); settings: for isoTOP-ABPP ratio (R) at liganded lysine P62875_K67: 50 uM, in vitro, sol, 231
T4 construct: isoTOP-ABPP experiments performed in cell lysates (in vitro); endogenous in cells; host or cells: soluble proteome of human cancer cell lines (MDA-MB-231, Ramos, Jurkat)
Summary of the method: as §1

[5] = target: T5, STRN3 Striatin-3 (Homo sapiens, UniProt Q13033); settings: for isoTOP-ABPP ratio (R) at liganded lysine Q13033_K755: 50 uM, in vitro, sol, 231
T5 construct: isoTOP-ABPP experiments performed in cell lysates (in vitro); endogenous in cells; host or cells: soluble proteome of human cancer cell lines (MDA-MB-231, Ramos, Jurkat)
T5 sequence (Q13033 1-797): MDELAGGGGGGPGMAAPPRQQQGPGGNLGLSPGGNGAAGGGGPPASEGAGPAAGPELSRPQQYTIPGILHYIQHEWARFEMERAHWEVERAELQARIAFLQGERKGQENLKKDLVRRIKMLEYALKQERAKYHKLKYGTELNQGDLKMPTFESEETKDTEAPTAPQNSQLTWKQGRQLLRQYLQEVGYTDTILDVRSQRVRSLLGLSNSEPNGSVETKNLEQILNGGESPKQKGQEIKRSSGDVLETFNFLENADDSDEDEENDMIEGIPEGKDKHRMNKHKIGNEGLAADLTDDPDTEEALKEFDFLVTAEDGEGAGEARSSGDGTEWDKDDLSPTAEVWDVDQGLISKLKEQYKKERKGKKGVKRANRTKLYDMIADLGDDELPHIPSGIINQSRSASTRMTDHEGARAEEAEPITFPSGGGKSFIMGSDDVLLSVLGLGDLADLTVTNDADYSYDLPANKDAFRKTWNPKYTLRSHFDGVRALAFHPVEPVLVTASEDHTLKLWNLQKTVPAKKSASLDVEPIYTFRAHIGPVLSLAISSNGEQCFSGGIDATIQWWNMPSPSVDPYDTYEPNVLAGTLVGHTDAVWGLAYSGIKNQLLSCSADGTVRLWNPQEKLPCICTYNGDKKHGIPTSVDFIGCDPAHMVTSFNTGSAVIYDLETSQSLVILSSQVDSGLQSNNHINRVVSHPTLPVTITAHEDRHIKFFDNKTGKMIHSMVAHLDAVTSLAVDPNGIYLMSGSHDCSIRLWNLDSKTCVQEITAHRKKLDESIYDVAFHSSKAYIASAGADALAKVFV
Summary of the method: as §1

T1 sequence (Q14204 whole entry): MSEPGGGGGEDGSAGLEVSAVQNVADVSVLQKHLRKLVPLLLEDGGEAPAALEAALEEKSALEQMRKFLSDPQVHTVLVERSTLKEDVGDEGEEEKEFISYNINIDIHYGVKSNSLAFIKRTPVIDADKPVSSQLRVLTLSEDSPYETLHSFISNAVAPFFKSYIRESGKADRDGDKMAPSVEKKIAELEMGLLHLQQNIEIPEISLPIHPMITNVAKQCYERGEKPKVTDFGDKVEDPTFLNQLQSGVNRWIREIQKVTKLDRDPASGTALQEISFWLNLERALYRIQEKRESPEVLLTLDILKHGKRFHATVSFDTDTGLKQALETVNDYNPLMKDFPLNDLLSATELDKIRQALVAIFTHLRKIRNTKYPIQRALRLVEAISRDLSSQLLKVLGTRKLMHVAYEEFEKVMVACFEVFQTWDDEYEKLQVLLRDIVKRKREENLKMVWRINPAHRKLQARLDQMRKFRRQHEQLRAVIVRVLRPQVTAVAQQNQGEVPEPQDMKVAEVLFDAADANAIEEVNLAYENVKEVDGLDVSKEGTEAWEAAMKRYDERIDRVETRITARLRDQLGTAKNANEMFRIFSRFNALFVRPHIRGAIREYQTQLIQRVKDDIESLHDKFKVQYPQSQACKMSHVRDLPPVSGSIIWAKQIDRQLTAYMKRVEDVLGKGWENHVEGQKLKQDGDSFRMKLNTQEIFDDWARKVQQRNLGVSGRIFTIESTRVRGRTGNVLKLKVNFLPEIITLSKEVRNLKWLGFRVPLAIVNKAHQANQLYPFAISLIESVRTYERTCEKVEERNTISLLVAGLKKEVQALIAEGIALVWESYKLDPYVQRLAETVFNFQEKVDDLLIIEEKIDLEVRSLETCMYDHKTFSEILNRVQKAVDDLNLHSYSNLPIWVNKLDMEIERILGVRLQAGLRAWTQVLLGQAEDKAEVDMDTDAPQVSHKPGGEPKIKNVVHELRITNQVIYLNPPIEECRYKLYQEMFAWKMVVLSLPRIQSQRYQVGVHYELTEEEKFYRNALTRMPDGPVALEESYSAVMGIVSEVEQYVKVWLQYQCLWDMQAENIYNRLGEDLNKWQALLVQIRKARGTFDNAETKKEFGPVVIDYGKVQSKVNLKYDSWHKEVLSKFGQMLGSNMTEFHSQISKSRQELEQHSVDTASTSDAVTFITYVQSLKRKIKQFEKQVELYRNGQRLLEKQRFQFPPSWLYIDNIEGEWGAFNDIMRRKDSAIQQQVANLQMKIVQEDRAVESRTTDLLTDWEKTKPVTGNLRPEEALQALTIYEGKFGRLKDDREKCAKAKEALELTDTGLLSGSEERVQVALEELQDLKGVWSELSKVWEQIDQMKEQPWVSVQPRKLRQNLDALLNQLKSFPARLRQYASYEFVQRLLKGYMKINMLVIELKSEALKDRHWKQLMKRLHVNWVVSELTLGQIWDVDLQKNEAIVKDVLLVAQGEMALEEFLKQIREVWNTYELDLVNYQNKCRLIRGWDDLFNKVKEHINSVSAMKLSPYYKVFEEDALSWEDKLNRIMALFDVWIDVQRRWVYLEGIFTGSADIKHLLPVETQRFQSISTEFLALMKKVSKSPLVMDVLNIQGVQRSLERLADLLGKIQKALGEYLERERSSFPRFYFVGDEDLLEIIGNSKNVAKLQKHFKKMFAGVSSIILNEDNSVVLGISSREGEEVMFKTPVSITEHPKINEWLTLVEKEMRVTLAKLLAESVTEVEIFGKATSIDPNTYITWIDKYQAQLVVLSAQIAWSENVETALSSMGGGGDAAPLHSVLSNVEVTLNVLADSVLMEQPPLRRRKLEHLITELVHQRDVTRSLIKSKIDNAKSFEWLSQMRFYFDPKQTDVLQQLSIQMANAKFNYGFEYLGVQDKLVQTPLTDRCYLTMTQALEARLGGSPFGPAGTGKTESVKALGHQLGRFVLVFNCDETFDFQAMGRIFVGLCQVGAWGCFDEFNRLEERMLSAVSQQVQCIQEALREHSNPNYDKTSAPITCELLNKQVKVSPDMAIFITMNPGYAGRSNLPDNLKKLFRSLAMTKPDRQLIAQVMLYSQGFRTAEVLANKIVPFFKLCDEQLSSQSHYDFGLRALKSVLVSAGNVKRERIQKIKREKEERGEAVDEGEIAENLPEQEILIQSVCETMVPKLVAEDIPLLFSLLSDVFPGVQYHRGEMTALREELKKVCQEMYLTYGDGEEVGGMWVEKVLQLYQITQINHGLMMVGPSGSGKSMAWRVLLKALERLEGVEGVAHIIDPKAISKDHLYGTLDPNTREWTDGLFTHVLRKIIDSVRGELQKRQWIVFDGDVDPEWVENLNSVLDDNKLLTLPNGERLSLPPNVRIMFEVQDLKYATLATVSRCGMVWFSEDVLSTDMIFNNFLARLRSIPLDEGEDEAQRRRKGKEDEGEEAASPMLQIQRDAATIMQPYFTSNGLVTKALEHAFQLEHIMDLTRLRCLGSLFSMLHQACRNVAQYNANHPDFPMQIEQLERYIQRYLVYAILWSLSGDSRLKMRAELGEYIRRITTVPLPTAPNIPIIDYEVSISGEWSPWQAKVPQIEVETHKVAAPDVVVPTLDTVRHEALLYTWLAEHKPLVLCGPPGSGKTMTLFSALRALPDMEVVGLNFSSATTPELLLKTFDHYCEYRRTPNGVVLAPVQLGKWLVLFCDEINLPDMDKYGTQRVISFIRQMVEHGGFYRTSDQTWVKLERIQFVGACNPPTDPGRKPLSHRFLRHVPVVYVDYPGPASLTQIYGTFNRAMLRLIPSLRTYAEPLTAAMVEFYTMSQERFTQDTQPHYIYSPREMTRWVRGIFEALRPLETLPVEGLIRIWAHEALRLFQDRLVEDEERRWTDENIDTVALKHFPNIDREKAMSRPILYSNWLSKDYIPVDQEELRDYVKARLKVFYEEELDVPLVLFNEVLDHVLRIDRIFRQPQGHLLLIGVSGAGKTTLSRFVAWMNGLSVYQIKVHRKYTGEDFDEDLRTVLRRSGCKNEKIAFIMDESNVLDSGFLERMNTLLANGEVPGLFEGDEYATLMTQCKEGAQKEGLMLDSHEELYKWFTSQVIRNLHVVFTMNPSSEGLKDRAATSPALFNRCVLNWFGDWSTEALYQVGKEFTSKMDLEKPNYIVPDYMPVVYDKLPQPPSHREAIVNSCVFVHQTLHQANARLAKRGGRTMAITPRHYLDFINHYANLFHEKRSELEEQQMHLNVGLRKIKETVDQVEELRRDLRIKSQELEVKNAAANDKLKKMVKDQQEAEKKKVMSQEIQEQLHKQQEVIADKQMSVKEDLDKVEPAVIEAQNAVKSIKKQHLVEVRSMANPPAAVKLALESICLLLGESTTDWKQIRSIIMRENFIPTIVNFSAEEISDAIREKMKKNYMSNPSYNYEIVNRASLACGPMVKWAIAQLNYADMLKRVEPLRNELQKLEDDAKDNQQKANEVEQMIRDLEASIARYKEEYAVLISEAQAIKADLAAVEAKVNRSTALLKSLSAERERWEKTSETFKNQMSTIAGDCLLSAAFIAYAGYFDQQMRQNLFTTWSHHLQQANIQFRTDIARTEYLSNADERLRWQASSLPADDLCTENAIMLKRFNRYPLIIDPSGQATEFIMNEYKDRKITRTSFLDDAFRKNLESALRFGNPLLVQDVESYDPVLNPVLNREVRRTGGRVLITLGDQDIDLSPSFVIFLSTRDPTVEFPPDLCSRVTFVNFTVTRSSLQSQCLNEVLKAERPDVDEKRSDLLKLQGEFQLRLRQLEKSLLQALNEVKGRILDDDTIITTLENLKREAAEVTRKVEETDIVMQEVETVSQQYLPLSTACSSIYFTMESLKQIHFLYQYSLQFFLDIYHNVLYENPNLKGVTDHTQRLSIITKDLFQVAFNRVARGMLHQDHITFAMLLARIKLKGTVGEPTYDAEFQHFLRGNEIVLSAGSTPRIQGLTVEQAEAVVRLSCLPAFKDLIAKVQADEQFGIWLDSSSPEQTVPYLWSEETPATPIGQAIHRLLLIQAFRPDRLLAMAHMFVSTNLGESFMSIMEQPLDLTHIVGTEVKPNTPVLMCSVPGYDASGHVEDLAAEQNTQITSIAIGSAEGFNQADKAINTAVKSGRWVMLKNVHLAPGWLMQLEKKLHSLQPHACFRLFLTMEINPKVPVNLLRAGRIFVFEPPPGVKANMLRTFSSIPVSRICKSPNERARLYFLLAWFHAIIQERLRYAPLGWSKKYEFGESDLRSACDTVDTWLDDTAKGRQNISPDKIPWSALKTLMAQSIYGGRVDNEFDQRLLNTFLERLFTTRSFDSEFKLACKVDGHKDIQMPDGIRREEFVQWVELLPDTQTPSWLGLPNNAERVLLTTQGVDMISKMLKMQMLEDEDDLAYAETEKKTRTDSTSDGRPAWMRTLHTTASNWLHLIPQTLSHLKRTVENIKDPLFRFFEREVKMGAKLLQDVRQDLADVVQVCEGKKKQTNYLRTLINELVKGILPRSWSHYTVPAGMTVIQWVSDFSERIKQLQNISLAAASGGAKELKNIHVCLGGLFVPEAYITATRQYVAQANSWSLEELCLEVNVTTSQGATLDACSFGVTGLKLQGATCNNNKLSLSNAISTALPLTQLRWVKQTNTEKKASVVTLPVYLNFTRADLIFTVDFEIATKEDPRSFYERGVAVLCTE

Row | SMILES | isoTOP-ABPP ratio (R) at liganded lysine Q14204_K1649 [1] | isoTOP-ABPP ratio (R) at liganded lysine P00367_K480 [2] | isoTOP-ABPP ratio (R) at liganded lysine Q9NVS9_K100 [3] | isoTOP-ABPP ratio (R) at liganded lysine P62875_K67 [4] | isoTOP-ABPP ratio (R) at liganded lysine Q13033_K755 [5] | isoTOP-ABPP ratio, lysine Q14204_K1649 ([1]; 50 uM_231_sol_in vitro) | isoTOP-ABPP ratio, lysine P00367_K480 ([2]; 50 uM_231_sol_in vitro) | isoTOP-ABPP ratio, lysine Q9NVS9_K100 ([3]; 50 uM_231_sol_in vitro) | isoTOP-ABPP ratio, lysine P62875_K67 ([4]; 50 uM_231_sol_in vitro) | isoTOP-ABPP ratio, lysine Q13033_K755 ([5]; 50 uM_231_sol_in vitro) | further results
1 | O=C(Oc1ccc([N+](=O)[O-])cc1[N+](=O)[O-])c1ccc2ccccc2n1 [fragment 35, 2,4-Dinitrophenyl quinoline-2-carboxylate] | 1.0 | 1.8 | 0.9 | 0.9 | 1.0 |  |  |  |  |  | 
2 | O=C(CCc1coc2cc(F)ccc2c1=O)Oc1ccc([N+](=O)[O-])cc1[N+](=O)[O-] [fragment 36, 2,4-Dinitrophenyl 3-(7-fluoro-4-oxo-4H-chromen-3-yl)propanoate] | 1.2 | 3.2 | 1.0 | 4.1 | 1.3 |  |  |  |  |  | 
3 | O=C(Oc1ccc([N+](=O)[O-])cc1[N+](=O)[O-])c1ccc(Oc2ccccc2)cc1 [fragment 39, 2,4-Dinitrophenyl 4-phenoxybenzoate] | 1.0 | 1.0 | 0.9 | 0.9 | 0.9 |  |  |  |  |  | 
4 | O=C(Oc1ccc([N+](=O)[O-])cc1[N+](=O)[O-])c1ccccc1Nc1cccc(C(F)(F)F)c1 [fragment 40, 2,4-Dinitrophenyl 2-((3-(trifluoromethyl)phenyl)amino)benzoate] | 0.8 | 1.2 | 0.9 | 1.0 | 1.2 |  |  |  |  |  | 
5 | CC(C)(C)OC(=O)NCCCC(=O)Oc1ccc([N+](=O)[O-])cc1[N+](=O)[O-] [fragment 41, 2,4-Dinitrophenyl 4-((tert-butoxycarbonyl)amino)butanoate] | 1.0 | 3.7 | 1.0 | 2.6 | 1.3 |  |  |  |  |  | 
6 | O=C(Oc1ccc([N+](=O)[O-])cc1[N+](=O)[O-])C(c1ccccc1)(c1ccccc1)c1ccccc1 [fragment 42, 2,4-Dinitrophenyl 2,2,2-triphenylacetate] | 0.8 | 1.1 | 0.9 | 1.0 | 0.9 |  |  |  |  |  | 
7 | N#Cc1ccc(C(=O)Oc2ccc([N+](=O)[O-])cc2[N+](=O)[O-])cc1 [fragment 44, 2,4-Dinitrophenyl 4-cyanobenzoate] |  |  |  |  |  | 1.3 | 1.2 | 0.9 | 1.0 | 1.0 | 
8 | O=C(CCc1ccc2c(c1)OCO2)Oc1ccc([N+](=O)[O-])cc1[N+](=O)[O-] [fragment 45, 2,4-Dinitrophenyl 3-(benzo[d][1,3]dioxol-5-yl)propanoate] |  |  |  |  |  | 1.0 | 2.8 | 1.0 | 2.8 | 1.3 | 
9 | O=C(ON1C(=O)CCC1=O)c1cc(C(F)(F)F)cc(C(F)(F)F)c1 [fragment 46, 3,5-Bis(trifluoromethyl)benzoic acid NHS ester] |  |  |  |  |  | 1.3 | 1.5 | 1.0 | 1.0 | 11.4 | 
10 | O=C(Oc1c(F)c(F)c(C(F)(F)F)c(F)c1F)c1cc(C(F)(F)F)cc(C(F)(F)F)c1 [fragment 47, 2,3,5,6-Tetrafluoro-4-(trifluoromethyl)phenyl 3,5-bis(trifluoromethyl)benzoate] |  |  |  |  |  | 0.9 | 2.0 | 0.9 | 1.0 | 0.9 | 
11 | CC(C)(C)OC(=O)N=C(NC(=O)OC(C)(C)C)n1cccn1 [fragment 50, reference compound] |  |  |  |  |  |  |  |  |  |  | isoTOP-ABPP ratio, lysine Q14204_K1649 ([1]; 100 uM_231_sol_in vitro): 1.3; isoTOP-ABPP ratio, lysine P00367_K480 ([2]; 100 uM_231_sol_in vitro): 1.3; isoTOP-ABPP ratio, lysine Q9NVS9_K100 ([3]; 100 uM_231_sol_in vitro): 1.1; isoTOP-ABPP ratio, lysine P62875_K67 ([4]; 100 uM_231_sol_in vitro): 1.0; isoTOP-ABPP ratio, lysine Q13033_K755 ([5]; 100 uM_231_sol_in vitro): 1.2
12 | NC(=O)c1cc(C(F)(F)F)cc(C(F)(F)F)c1 [fragment 51, reference compound] |  |  |  |  |  | 0.7 | 1.5 | 0.9 | 1.0 | 0.9 | 

Source: patent publication US20210255193A1, “LYSINE REACTIVE PROBES AND USES THEREOF” (The Scripps Research Institute, priority 2017, published 2021)
